The subject of the assay is human PC3 prostate cancer cells. The assay is described as follows: Lifespan of SCID mice inoculated with human PC3 prostate cancer cells. Type of assay: in vivo.

As for `COc1ccc(CCN2CCC[C@H]2COC(c2ccccc2)c2ccc(Cl)cc2)cc1` (stereo partly shown) [TH-1177], the lifespan result is recorded as “significantly extended the lifespan”.
